Test system: EGFP reporter (7×TetO array, basal CMV promoter) in HEK293T reporter cell line
Assay: TAD-seq pooled activation screen of 60-aa fragments fused to PYL1
Format: cell-based, human
Details: for Hit high GFP: high GFP population (top 1%); for logFC high GFP / logFC medium GFP: log 2 fold change of counts, 100 μM ABA 48 hours; for logFC high GFP: sorted high GFP cells (top 1%) vs unsorted cells; for logFC medium GFP: sorted medium GFP cells (top 2-5%) vs unsorted cells; for Hit medium GFP: medium GFP population (top 2-5%); call rule not given here
Source text: A fragment library of 75 activators identified in our screen was generated, using 60 amino-acid tiles every 20 aa such that every amino acid was represented by three different fragments (FIG. 3A). The pooled fragment library was fused to PYL1 and recruited to the same GFP reporter used in the original ORFeome screen (FIG. 3A). […] The GFP positive population was sorted into two independent replicates, and fragments in each population were quantified by sequencing. However, in contrast to the ORFeome screen, both high GFP cells (top 1%) and medium GFP cells (top 2-5%) were sorted to potentially identify transactivators of different strength.
Activation domain tiling library generation. A tiling library was generated from 75 proteins identified as activators in the ORFeome screen. Oligonucleotides containing a 5′ adapter […] (SEQ ID NO: 23) and a 3′ adapter […] (SEQ ID NO: 24) to generate a 5′ adapter ([…]) (SEQ ID NO: 11) and a 3′ adapter ([…]) (SEQ ID NO: 12) were synthesized as pooled libraries (Twist Biosciences). 6×50 μl PCR reactions were set up using NEBNext Ultra II Q5 master mix (New England Biolabs) with 5 nM oligos as template. PCR conditions were optimized to find the lowest cycle with a clean visible product at the expected 300 bp length. The thermocycling condition was an initial 30 s at 98° C., then 2 cycles of 98° C. for 10 s, 63° C. for 20 s, and 72° C. for 15 s, followed by 10 more cycles of 98° C. for 10 s and 72° C. for 30 s with a final extension at 72° C. for 5 min. Primers were designed to have Gateway compatible flanking sequences. The resulting libraries were gel extracted by QIAgen gel extraction kit after loading on a 2% TAE gel for 2 hrs at 60V and subsequently cloned into pDONR221 using 20 separate BP reactions in total of 5 μl reactions. The entry plasmid pool was transformed after an overnight reaction into DHSalpha competent E. coli and incubated overnight on LB agar plates containing kanamycin ([…]). Colonies were collected and plasmid DNA purified. 20 LR reactions were then set up as described in the previous section. Each reaction was transformed into NEB 10-beta chemically competent E. coli and grown on LB agar plates containing carbenicillin ([…]) overnight at 30° C. Colonies were counted to ensure >200-fold coverage at each step of cloning, pooled and maxiprepped.
Pooled activation screens. ORFeome and transactivation tiling libraries tagged at the C-terminus with PYL1 were packaged into lentiviral particles. A clonal EGFP reporter cell line stably co-expressing ABI-dCas9 and a gRNA targeting the promoter were transduced at low multiplicity of infection (MOI) with approximately 30% cell survival after puromycin (1 μg/mL) selection. Untransduced cells under the same condition were fully eliminated. Sufficient cells were transduced to maintain >500 fold coverage of the libraries. Recruitment was induced by treating cells with 100 μM abscisic acid (ABA, Sigma) for 48 hours. In parallel, a control batch of cells were treated with equal total volume of DMSO. Cells were then washed in PBS, treated with dissociation buffer (1 mM EDTA, 10 mM KCl, 150 mM NaCl, 5 mM sodium bicarbonate, 0.1% glucose) and resuspended in flow buffer (5 mM EDTA, 25 mM HEPES pH 7, 1% BSA, PBS). High GFP population for each library, top 1% for ORFeome and two bins of top 1% and the next 4% for the TAD screen, were sorted and their genomic DNA directly extracted using QIAmp DNA Blood Mini Kit (QIAGEN).
TAD sequencing. Performed nested PCR on the purified genomic DNA using primers targeting T7 promoter and PYL1 of the backbone vector in the first step creating a ˜470 bp product. Products of the first reaction were then pooled and amplified for an additional 10 steps using primers targeting outside the Gateway sites creating a ˜300 bp product. Libraries were quantified on Qubit dsDNA Broad Range kit and paired-end sequenced on an Illumina MIseq with a custom PAGE-purified R1 sequencing primer. […]

Row | Substance | Hit high GFP | logFC high GFP | logFC medium GFP | Hit medium GFP
1 | C3orf62-11: 60-aa TAD-seq fragment of C3orf62 (NHMCGHCQDSPFKEEAWALLMDKSPQKATDADPGSLKQAFDDHNIVETVLDLEEDYNVMT; listed as Homo sapiens) [Fragment C3orf62-11] | hit | 6.023 | −0.5261 | 
2 | C11orf74-1: 60-aa TAD-seq fragment of C11orf74 (MSAHMSGLEIMDEDQLIKDVLDKFLNCHEQTYDEEFLNTFTHLSQDLLLLPGEVEQDVST; listed as Homo sapiens) [Fragment C11orf74-1] | hit | 2.356 | 1.551 | hit
3 | CITED1-7: 60-aa TAD-seq fragment of CITED1 (LQNWDFGAQAGGAESLSPSAGAQSPAIIDSDPVDEEVLMSLVVELGLDRANELPELWLGQ; listed as Homo sapiens) | hit | 4.314 | 1.597 | hit
4 | CITED2-11: 60-aa TAD-seq fragment of CITED2 (MPASVAHVPAAMLPPNVIDTDFIDEEVLMSLVIEMGLDRIKELPELWLGQNEFDFMTDFV; listed as Homo sapiens) | hit | 6.165 | 0.9491 | 
5 | CSRNP1-28: 60-aa TAD-seq fragment of CSRNP1 (DNIEAPHFPLPGLSPPGDASSCFLESLMGFSEPAAEALDPFIDSQFEDTVPASLMEPVPV; listed as Homo sapiens) |  | 0.5029 | 0.6955 | hit
6 | DDIT3-1: 60-aa TAD-seq fragment of DDIT3 (MAAESLPFSFGTLSSWELEAWYEDLQEVLSSDENGGTYVSPPGNEEEESKIFTTLDPASL; listed as Homo sapiens) | hit | 2.373 | 1.502 | hit
7 | DDIT3-2: 60-aa TAD-seq fragment of DDIT3 (WYEDLQEVLSSDENGGTYVSPPGNEEEESKIFTTLDPASLAWLTEEEPEPAEVTSTSQSP; listed as Homo sapiens) |  | 1.138 | 1.28 | hit
8 | ELF4-1: 60-aa TAD-seq fragment of ELF4 (MAITLQPSDLIFEFASNGMDDDIHQLEDPSVFPAVIVEQVPYPDLLHLYSGLELDDVHNG; listed as Homo sapiens) |  | 0.6626 | 0.7287 | hit
9 | ELF4-2: 60-aa TAD-seq fragment of ELF4 (DDIHQLEDPSVFPAVIVEQVPYPDLLHLYSGLELDDVHNGIITDGTLCMTQDQILEGSFL; listed as Homo sapiens) | hit | 1.467 | 1.364 | hit
10 | FAM22F-19: 60-aa TAD-seq fragment of FAM22F (PRPQRPAETNAHLPPPRPQRPAETKVPEEIPPEVVQEYVDIMEELLGSHPGDTGEPEGQR; listed as Homo sapiens) |  | 0.9998 | 0.9884 | hit
11 | FAM22F-20: 60-aa TAD-seq fragment of FAM22F (PAETKVPEEIPPEVVQEYVDIMEELLGSHPGDTGEPEGQREKGKVEQPQEEDGITSDPGL; listed as Homo sapiens) | hit | 3.214 | 2.101 | hit
12 | FAM22F-22: 60-aa TAD-seq fragment of FAM22F (EKGKVEQPQEEDGITSDPGLLSYIDKLCSQEDFVTKVEAVIHPRFLEELLSPDPQMDFLA; listed as Homo sapiens) | hit | 4.76 | 2.325 | hit
13 | FAM22F-23: 60-aa TAD-seq fragment of FAM22F (LSYIDKLCSQEDFVTKVEAVIHPRFLEELLSPDPQMDFLALSQELEQEEGLTLAQLVEKR; listed as Homo sapiens) | hit | 5.822 | 0.2737 | 
14 | FAM90A1-19: 60-aa TAD-seq fragment of FAM90A1 (RQPPHSRPCLPTAQACTMSHHPAASHDGAQPLRVLFRRLENGRWSSSLLTAPSFHSPEKP; listed as Homo sapiens) | hit | 2.051 | 1.557 | hit
15 | HOXA2-4: 60-aa TAD-seq fragment of HOXA2 (PGSHPRHGAGGRPKPSPAGSRGSPVPAGALQPPEYPWMKEKKAAKKTALLPAAAAAATAA; listed as Homo sapiens) |  | 1.664 | 1.595 | hit
16 | HOXA2-5: 60-aa TAD-seq fragment of HOXA2 (RGSPVPAGALQPPEYPWMKEKKAAKKTALLPAAAAAATAAATGPACLSHKESLEIADGSG; listed as Homo sapiens) |  | 1.684 | 2.311 | hit
17 | HOXA2-6: 60-aa TAD-seq fragment of HOXA2 (KKAAKKTALLPAAAAAATAAATGPACLSHKESLEIADGSGGGSRRLRTAYTNTQLLELEK; listed as Homo sapiens) |  | 1.951 | 1.738 | hit
18 | HSF1-20: 60-aa TAD-seq fragment of HSF1 (KNELSDHLDAMDSNLDNLQTMLSSHGFSVDTSALLDLFSPSVTVPDMSLPDLDSSLASIQ; listed as Homo sapiens) |  | 0.6234 | 0.7077 | hit
19 | HSF1-21: 60-aa TAD-seq fragment of HSF1 (MLSSHGFSVDTSALLDLFSPSVTVPDMSLPDLDSSLASIQELLSPQEPPRPPEAENSSPD; listed as Homo sapiens) |  | 0.432 | 0.8992 | hit
20 | HSF1-24: 60-aa TAD-seq fragment of HSF1 (SGKQLVHYTAQPLFLLDPGSVDTGSNDLPVLFELGEGSYFSEGDGFAEDPTISLLTGSEP; listed as Homo sapiens) |  | 0.6763 | 0.8092 | hit
21 | HSF1-25: 60-aa TAD-seq fragment of HSF1 (AQPLFLLDPGSVDTGSNDLPVLFELGEGSYFSEGDGFAEDPTISLLTGSEPPKAKDPTVS; listed as Homo sapiens) |  | 0.7725 | 1.153 | hit
